≈ marks a conversion by molar mass, not a printed value. Like-named read-outs stand apart in the source and are kept apart here. Positions of bridges follow the written chain, without caps; N, C: chain ends. Non-standard residues stand in square brackets, D forms with d. Residues, ends and D or L forms follow the SMILES beside them. *: point of attachment. Phenylacetyl(3-Cl) = O=C(Cc1cccc(Cl)c1)*; Phenylacetyl(4-Cl) = O=C(Cc1ccc(Cl)cc1)*; X13 = O=C(Cc1ccc(Cl)cc1Cl)*; Nonanoyl = CCCCCCCCC(=O)*; X14 = Cc1ccc(C(=O)*)cc1C; Dab = NCC[C@H](N)C(=O)O; Abu = CC[C@H](N)C(=O)O; Dap = NC[C@H](N)C(=O)O; PhAc = O=C(Cc1ccccc1)*
Tests used:
Acinetobacter baumannii = system: Acinetobacter baumannii
How it was run: (§1)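 Using polymyxin B sulphate as comparator control, the trifluoroacetate-salt lipopeptides were assayed in CAMHB by broth microdilution to CLSI M100-S18, and MICs recorded.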

Enterobacter cloacae = system: Enterobacter cloacae
How it was run: as §1

Pseudomonas aeruginosa = system: Pseudomonas aeruginosa
How it was run: as §1

Klebsiella pneumoniae = system: Klebsiella pneumoniae
How it was run: as §1

P. aeruginosa ATCC 27853 = assay: In vivo efficacy in mouse blood infection model (neutropenic Swiss mice); settings: compound, free base 4 mg/kg intravenously 2 h after inoculation, blood at 4 h
Description: P. aeruginosa ATCC 27853, A. baumannii ATCC 19606 and K. pneumoniae FADDI-KP032 were subcultured on nutrient agar plates. One colony of each bacterial strain was dispersed in 10-mL CAMHB and incubated overnight. On day 2, an aliquot (0.2 mL) of each overnight culture suspension was dispersed in 20-mL CAMHB and incubated for 1.5-2.5 h for production of early log-phase growth bacterial culture. The bacteria in the early log-phase growth suspension were concentrated by centrifugation (3,220 g for 10 min) and re-suspended in sterile 0.9% saline for inoculation into mice. The bacterial cell concentration (colony forming unit [CFU]/mL) in saline was estimated by determining the optical density (OD) of the suspension at 600 nm, and confirmed by plating the suspension on nutrient agar plates. Swiss mice (22 to 28 g) were rendered neutropenic by injecting two doses of cyclophosphamide intraperitoneally, −4 day (150 mg/kg) and −1 day (100 mg/kg) prior to inoculation. Bloodstream infection was established by injecting intravenously 50 μL of early log-phase bacterial suspension (10^8-10^9 CFU/mL). The exact injection volume for each bacterial suspension was calculated based upon the OD value of the bacterial suspension and the desired inoculum for each isolate.
Solutions for administration of colistin, polymyxin B or the compounds were prepared at a concentration of 1 mg (free base) per mL in sterile 0.9% saline. At 2 h after inoculation, a mouse in the treatment groups was injected intravenously with one of the above solutions at 4 μL/g body weight (BW) (i.e. free base 4 mg/kg BW), while the same volume of saline was injected into the control mice. At 0 h or at 4 h after the administration of antibacterial drug or saline (control), animals were euthanised by inhalation of overdose isoflurane. The skin on the chest and fore-paws of each animal was thoroughly cleansed with 70% ethanol and Betadine®. The blood was collected via cardiac puncture using a 1-mL syringe rinsed with heparin (5,000 IU/mL), diluted serially in sterile 0.9% saline and plated on nutrient agar plates using a spiral plater.
The agar plates were incubated at 37° C. overnight. The bacterial colonies on the plate were counted and CFU/mL of the blood was calculated. The log10 CFU/mL of blood in each mouse was calculated. The in vivo activity of the compounds against the bacteria was calculated as the difference of the log10 CFU/mL values between the treated mice and the control mice at 4 h (Δ log=log10 (treated)CFU/mL−log10 (control)CFU/mL).
Any compound showing a decrease in bacterial loading (Δ log) of ≥2 at 4 h is considered to have good in vivo efficacy in this initial screening model.

[1] = Acinetobacter baumannii ATCC 17978, broth microdilution in CAMHB
[2] = Acinetobacter baumannii ATCC 19606, broth microdilution in CAMHB
[3] = Acinetobacter baumannii FADDI-AB034, broth microdilution in CAMHB
[4] = Enterobacter cloacae FADDI-EC001, broth microdilution in CAMHB
[5] = Enterobacter cloacae FADDI-EC003, broth microdilution in CAMHB
[6] = Enterobacter cloacae FADDI-EC006, broth microdilution in CAMHB
[7] = Pseudomonas aeruginosa ATCC 27853, broth microdilution in CAMHB
[8] = Pseudomonas aeruginosa FADDI-PA022, broth microdilution in CAMHB
[9] = Pseudomonas aeruginosa FADDI-PA025, broth microdilution in CAMHB

Compound | Δ log (Treated-Control at 4 h) (P. aeruginosa ATCC 27853) [log10 CFU/mL] | MIC (Acinetobacter baumannii) [mg/L] | Minimum inhibitory concentration, Ab A ATCC 17978 (Acinetobacter baumannii) [mg/L] | Minimum inhibitory concentration, Ab ATCC 19606 (Acinetobacter baumannii) [mg/L] | Minimum inhibitory concentration, Ab FADDI-AB034 (Acinetobacter baumannii) [mg/L] | Minimum inhibitory concentration, Ec FADDI-EC001 (Enterobacter cloacae) [mg/L] | Minimum inhibitory concentration, Ec FADDI-EC003 (Enterobacter cloacae) [mg/L] | Minimum inhibitory concentration, Ec FADDI-EC006 (Enterobacter cloacae) [mg/L] | MIC (Pseudomonas aeruginosa) [mg/L] | Minimum inhibitory concentration, Pa ATCC 27853 (Pseudomonas aeruginosa) [mg/L] | Minimum inhibitory concentration, Pa FADDI-PA022 (Pseudomonas aeruginosa) [mg/L] | Minimum inhibitory concentration, Pa FADDI-PA025 (Pseudomonas aeruginosa) [mg/L] | MIC (Klebsiella pneumoniae) [mg/L] | further results
CC(C)C[C@H]1NC(=O)[C@H](CCN)NC(=O)[C@@H](NC(=O)[C@H](CCN)NC(=O)[C@@H](NC(=O)[C@H](CCN)NC(=O)Cc2ccccc2)[C@@H](C)O)CCNC(=O)[C@H]([C@@H](C)O)NC(=O)[C@H](CCN)NC(=O)[C@H](CCN)NC(=O)[C@H]([C@@H](C)O)NC1=O [Compound 30] (PhAc-[Dab]T[Dab][Dab][Dab][dL]T[Dab][Dab]T; lactam 4-C) | −0.39 |  |  |  |  |  |  |  |  |  |  |  |  | MIC (Acinetobacter baumannii; A. baumannii ATCC 19606): 32 mg/L (≈ 28.2 µM); Minimum inhibitory concentration, Ab A ATCC 17978 (Acinetobacter baumannii; [1]): 32 mg/L (≈ 28.2 µM); Minimum inhibitory concentration, Ab ATCC 19606 (Acinetobacter baumannii; [2]): 32 mg/L (≈ 28.2 µM); Minimum inhibitory concentration, Ab FADDI-AB034 (Acinetobacter baumannii; [3]): 32 mg/L (≈ 28.2 µM); Minimum inhibitory concentration, Ec FADDI-EC001 (Enterobacter cloacae; [4]): 2 mg/L (≈ 1.76 µM); Minimum inhibitory concentration, Ec FADDI-EC003 (Enterobacter cloacae; [5]): 2 mg/L (≈ 1.76 µM); Minimum inhibitory concentration, Ec FADDI-EC006 (Enterobacter cloacae; [6]): 4 mg/L (≈ 3.52 µM); MIC (Pseudomonas aeruginosa; P. aeruginosa ATCC 27853): 1 mg/L (≈ 0.881 µM); Minimum inhibitory concentration, Pa ATCC 27853 (Pseudomonas aeruginosa; [7]): 1 mg/L (≈ 0.881 µM); Minimum inhibitory concentration, Pa FADDI-PA022 (Pseudomonas aeruginosa; [8]): 1 mg/L (≈ 0.881 µM); Minimum inhibitory concentration, Pa FADDI-PA025 (Pseudomonas aeruginosa; [9]): >32 mg/L; MIC (Klebsiella pneumoniae; K. pneumoniae FADDI-KP032): 1 mg/L (≈ 0.881 µM)
CCCCCCCCC(=O)N[C@@H](CCN)C(=O)N[C@H](C(=O)N[C@@H](CN)C(=O)N[C@H]1CCNC(=O)[C@H]([C@@H](C)O)NC(=O)[C@H](CCN)NC(=O)[C@H](CCN)NC(=O)[C@H](CC)NC(=O)[C@@H](CC(C)C)NC(=O)[C@H](CCN)NC1=O)[C@@H](C)O [Compound 59] (Nonanoyl-[Dab]T[Dap][Dab][Dab][dL][Abu][Dab][Dab]T; lactam 4-C) | −2.82 | 2 (≈ 1.77 µM) | 1 (≈ 0.887 µM) | 2 (≈ 1.77 µM) | 0.5 (≈ 0.443 µM) | 1 (≈ 0.887 µM) | 1 (≈ 0.887 µM) | 0.5 (≈ 0.443 µM) | 1 (≈ 0.887 µM) | 1 (≈ 0.887 µM) | 2 (≈ 1.77 µM) | 2 (≈ 1.77 µM) | <0.125 | 
CC(C)C[C@H]1NC(=O)[C@H](CCN)NC(=O)[C@@H](NC(=O)[C@H](CN)NC(=O)[C@@H](NC(=O)[C@H](CCN)NC(=O)Cc2cccc(Cl)c2)[C@@H](C)O)CCNC(=O)[C@H]([C@@H](C)O)NC(=O)[C@H](CCN)NC(=O)[C@H](CCN)NC(=O)[C@H]([C@@H](C)O)NC1=O [Compound 61] ({Phenylacetyl(3-Cl)}-[Dab]T[Dap][Dab][Dab][dL]T[Dab][Dab]T; lactam 4-C) | −4.75 |  |  |  |  |  |  |  |  |  |  |  |  | MIC (Acinetobacter baumannii; A. baumannii ATCC 19606): 4 mg/L (≈ 3.46 µM); Minimum inhibitory concentration, Ab A ATCC 17978 (Acinetobacter baumannii; [1]): 2 mg/L (≈ 1.73 µM); Minimum inhibitory concentration, Ab ATCC 19606 (Acinetobacter baumannii; [2]): 4 mg/L (≈ 3.46 µM); Minimum inhibitory concentration, Ab FADDI-AB034 (Acinetobacter baumannii; [3]): 1 mg/L (≈ 0.865 µM); Minimum inhibitory concentration, Ec FADDI-EC001 (Enterobacter cloacae; [4]): 0.25 mg/L (≈ 0.216 µM); Minimum inhibitory concentration, Ec FADDI-EC003 (Enterobacter cloacae; [5]): 0.25 mg/L (≈ 0.216 µM); Minimum inhibitory concentration, Ec FADDI-EC006 (Enterobacter cloacae; [6]): 0.25 mg/L (≈ 0.216 µM); MIC (Pseudomonas aeruginosa; P. aeruginosa ATCC 27853): 0.5 mg/L (≈ 0.433 µM); Minimum inhibitory concentration, Pa ATCC 27853 (Pseudomonas aeruginosa; [7]): 0.5 mg/L (≈ 0.433 µM); Minimum inhibitory concentration, Pa FADDI-PA022 (Pseudomonas aeruginosa; [8]): 0.5 mg/L (≈ 0.433 µM); Minimum inhibitory concentration, Pa FADDI-PA025 (Pseudomonas aeruginosa; [9]): >32 mg/L; MIC (Klebsiella pneumoniae; K. pneumoniae FADDI-KP032): 0.25 mg/L (≈ 0.216 µM)
CC(C)C[C@H]1NC(=O)[C@H](CCN)NC(=O)[C@@H](NC(=O)[C@H](CN)NC(=O)[C@@H](NC(=O)[C@H](CCN)NC(=O)Cc2ccc(Cl)cc2Cl)[C@@H](C)O)CCNC(=O)[C@H]([C@@H](C)O)NC(=O)[C@H](CCN)NC(=O)[C@H](CCN)NC(=O)[C@H]([C@@H](C)O)NC1=O [Compound 62] (X13-[Dab]T[Dap][Dab][Dab][dL]T[Dab][Dab]T; lactam 4-C) | −2.69 | 2 (≈ 1.68 µM) | 1 (≈ 0.84 µM) | 2 (≈ 1.68 µM) | 1 (≈ 0.84 µM) | <0.125 | <0.125 | 0.25 (≈ 0.21 µM) | 0.5 (≈ 0.42 µM) | 0.5 (≈ 0.42 µM) | 1 (≈ 0.84 µM) | 1 (≈ 0.84 µM) | 0.25 (≈ 0.21 µM) | 
CC[C@@H]1NC(=O)[C@@H](CC(C)C)NC(=O)[C@H](CCN)NC(=O)[C@@H](NC(=O)[C@H](CN)NC(=O)[C@@H](NC(=O)[C@H](CCN)NC(=O)Cc2ccc(Cl)cc2Cl)[C@@H](C)O)CCNC(=O)[C@H]([C@@H](C)O)NC(=O)[C@H](CCN)NC(=O)[C@H](CCN)NC1=O [Compound 70] (X13-[Dab]T[Dap][Dab][Dab][dL][Abu][Dab][Dab]T; lactam 4-C) | −3.11 | 0.5 (≈ 0.426 µM) | 0.5 (≈ 0.426 µM) | 0.5 (≈ 0.426 µM) | 1 (≈ 0.852 µM) | 0.5 (≈ 0.426 µM) | 0.25 (≈ 0.213 µM) | 0.5 (≈ 0.426 µM) | 1 (≈ 0.852 µM) | 1 (≈ 0.852 µM) | 1 (≈ 0.852 µM) | 2 (≈ 1.7 µM) | 0.25 (≈ 0.213 µM) | 
CC[C@@H]1NC(=O)[C@@H](CC(C)C)NC(=O)[C@H](CCN)NC(=O)[C@@H](NC(=O)[C@H](CN)NC(=O)[C@@H](NC(=O)[C@H](CCN)NC(=O)Cc2ccc(Cl)cc2)[C@@H](C)O)CCNC(=O)[C@H]([C@@H](C)O)NC(=O)[C@H](CCN)NC(=O)[C@H](CCN)NC1=O [Compound 77] ({Phenylacetyl(4-Cl)}-[Dab]T[Dap][Dab][Dab][dL][Abu][Dab][Dab]T; lactam 4-C) | −2.28 | 4 (≈ 3.51 µM) | 0.5 (≈ 0.439 µM) | 4 (≈ 3.51 µM) | 1 (≈ 0.877 µM) | 0.5 (≈ 0.439 µM) | <0.125 | 0.25 (≈ 0.219 µM) | 0.25 (≈ 0.219 µM) | 0.25 (≈ 0.219 µM) | 0.5 (≈ 0.439 µM) | 4 (≈ 3.51 µM) | <0.125 | 
CC[C@@H]1NC(=O)[C@@H](CC(C)C)NC(=O)[C@H](CCN)NC(=O)[C@@H](NC(=O)[C@H](CN)NC(=O)[C@@H](NC(=O)[C@H](CCN)NC(=O)c2ccc(C)c(C)c2)[C@@H](C)O)CCNC(=O)[C@H]([C@@H](C)O)NC(=O)[C@H](CCN)NC(=O)[C@H](CCN)NC1=O [Compound 83] (X14-[Dab]T[Dap][Dab][Dab][dL][Abu][Dab][Dab]T; lactam 4-C) | −3.63 | 2 (≈ 1.79 µM) | 1 (≈ 0.893 µM) | 2 (≈ 1.79 µM) | 0.5 (≈ 0.447 µM) | 0.25 (≈ 0.223 µM) | 0.25 (≈ 0.223 µM) | 0.25 (≈ 0.223 µM) | 1 (≈ 0.893 µM) | 1 (≈ 0.893 µM) | 1 (≈ 0.893 µM) | 2 (≈ 1.79 µM) | 0.25 (≈ 0.223 µM) | 

Source: patent publication USRE48335E1, “Polymyxin derivatives as antimicrobial compounds” (priority 2014, dated 2020)
